Results: patent publication US8952024B2, “Herbicidal pyrimidone derivatives” (E I du Pont de Nemours and Company, priority 2009, dated 2015)

How the values were obtained:
Type in all cases: in vivo
rice (Oryza sativa) = assay: Test B flooded paddy test; details: for Plant response rating, Rice: Flood (flooded paddy test), 13 to 15 days
How it was run: (§1)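 Each compound is added to standing floodwater (3 cm above soil, maintained) in pots of 2-leaf-stage plants; greenhouse exposure lasts 13–15 d before visual comparison with controls on a 0–100 control scale.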

[1] = system: ducksalad (Heteranthera limosa); assay: Test B flooded paddy test; details: for Plant response rating, Ducksalad: Flood (flooded paddy test), 13 to 15 days
How it was run: as §1

[2] = system: umbrella sedge (Cyperus difformis); assay: Test B flooded paddy test; details: for Plant response rating, Sedge, Umbrella: Flood (flooded paddy test), 13 to 15 days
How it was run: as §1

[3] = system: barnyardgrass (Echinochloa crus-galli); assay: Test B flooded paddy test; details: for Plant response rating, Barnyardgrass: Flood (flooded paddy test), 13 to 15 days
How it was run: as §1

[4] = system: pigweed (Amaranthus retroflexus); assay: Test A pre-/postemergence plant response
How it was run: (§2)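 Formulated test chemicals (non-phytotoxic solvent, surfactant) were sprayed onto soil right after planting and simultaneously onto young plants at one to two leaves, 2 to 10 cm tall. Plants stayed in the greenhouse about ten days; injury was then visually scored against untreated controls, from 0 (no effect) to 100 (complete control).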

[5] = system: wheat (Triticum aestivum); assay: Test A pre-/postemergence plant response
How it was run: as §2

corn (Zea mays) = assay: Test A pre-/postemergence plant response
How it was run: as §2

[6] = system: giant foxtail (Setaria faberii); assay: Test A pre-/postemergence plant response
How it was run: as §2

[7] = system: morningglory (Ipomoea spp.); assay: Test A pre-/postemergence plant response
How it was run: as §2

[8] = system: large crabgrass (Digitaria sanguinalis); assay: Test A pre-/postemergence plant response
How it was run: as §2

[9] = system: velvetleaf (Abutilon theophrasti); assay: Test A pre-/postemergence plant response
How it was run: as §2

[10] = system: barnyardgrass (Echinochloa crus-galli); assay: Test A pre-/postemergence plant response
How it was run: as §2

[11] = 250 g ai/ha, flooded paddy test, visual rating on 0 to 100 scale (0 no effect, 100 complete control) after 13 to 15 days
[12] = 62 g ai/ha, scale of 0 to 100 where 0 is no effect and 100 is complete control
[13] = 125 g ai/ha, scale 0 to 100, 0 is no effect, 100 is complete control
[14] = Flood, 31 g ai/ha, scale 0 to 100 (0 no effect, 100 complete control)
[15] = Postemergence, 125 g ai/ha, 0 to 100 scale where 0 is no effect and 100 is complete control
[16] = Postemergence, 500 g ai/ha, visual injury, 0 to 100 scale (0 no effect, 100 complete control), approx. ten days
[17] = Preemergence, 125 g ai/ha, 0 to 100 scale, 0 = no effect, 100 = complete control
[18] = Preemergence, 500 g ai/ha, 0 to 100 scale, 0 = no effect, 100 = complete control

`CCCCn1c(-c2cccc(F)c2)ncc(C(=O)C2=C(O)C3CCC(C3)C2=O)c1=O` (stereo not drawn) [Compound 237] was tested, and the “Plant response rating, Flood, Rice” value (rice (Oryza sativa); [11]) was 45, the “Plant response rating, Rice” value (rice (Oryza sativa); [12]) was 0 and the “Plant response rating, Rice” value (rice (Oryza sativa); [13]) was 0. The “Rice plant response rating” value (rice (Oryza sativa); [14]) was 0, the “Plant response rating, Flood, Ducksalad” value [1, 11] was 100 and the “Plant response rating, Ducksalad” value [1, 12] was 65. For the same compound, the “Plant response rating, Ducksalad” value [1, 13] was 90, the “Ducksalad plant response rating” value [1, 14] was 0 and the “Plant response rating, Flood, Sedge, Umbrella” value [2, 11] was 100. For the same compound, the “Plant response rating, Sedge, Umbrella” value [2, 12] was 45, the “Plant response rating, Sedge, Umbrella” value [2, 13] was 55 and the “Sedge, Umbrella plant response rating” value [2, 14] was 0. For the same compound, the “Plant response rating, Flood, Barnyardgrass” value [3, 11] was 30, the “Plant response rating, Barnyardgrass” value [3, 12] was 0 and the “Plant response rating, Barnyardgrass” value [3, 13] was 0. For the same compound, the “Barnyardgrass plant response rating” value [3, 14] was 0, the “Plant response rating, Pigweed” value [4, 15] was 90 and the “Pigweed plant response rating” value [4, 16] was 100. For the same compound, the “Plant response rating, Pigweed” value [4, 17] was 30, the “Plant response rating, Pigweed” value [4, 18] was 100 and the “Plant response rating, Wheat” value [5, 15] was 20. The “Wheat plant response rating” value [5, 16] was 70, the “Plant response rating, Wheat” value [5, 17] was 0 and the “Plant response rating, Wheat” value [5, 18] was 30. For the same compound, the “Plant response rating, Corn” value (corn (Zea mays); [15]) was 40, the “Corn plant response rating” value (corn (Zea mays); [16]) was 80 and the “Plant response rating, Corn” value (corn (Zea mays); [17]) was 0. The “Plant response rating, Corn” value (corn (Zea mays); [18]) was 50, the “Plant response rating, Foxtail, Giant” value [6, 15] was 90 and the “Foxtail, Giant plant response rating” value [6, 16] was 100. The “Plant response rating, Foxtail, Giant” value [6, 17] was 40, the “Plant response rating, Foxtail, Giant” value [6, 18] was 90 and the “Plant response rating, Morningglory” value [7, 15] was 100. For the same compound, the “Morningglory plant response rating” value [7, 16] was 100, the “Plant response rating, Morningglory” value [7, 17] was 10 and the “Plant response rating, Morningglory” value [7, 18] was 80. For the same compound, the “Plant response rating, Crabgrass, Large” value [8, 15] was 80, the “Crabgrass, Large plant response rating” value [8, 16] was 100 and the “Plant response rating, Crabgrass, Large” value [8, 17] was 40. For the same compound, the “Plant response rating, Crabgrass, Large” value [8, 18] was 100, the “Plant response rating, Velvetleaf” value [9, 15] was 100 and the “Velvetleaf plant response rating” value [9, 16] was 100. For the same compound, the “Plant response rating, Velvetleaf” value [9, 17] was 80, the “Plant response rating, Velvetleaf” value [9, 18] was 100 and the “Plant response rating, Barnyardgrass” value [10, 15] was 100. For the same compound, the “Barnyardgrass plant response rating” value [10, 16] was 100, the “Plant response rating, Barnyardgrass” value [10, 17] was 20 and the “Plant response rating, Barnyardgrass” value [10, 18] was 90.
